The experiment has as its target T1, Human Polymorphonuclear Leukocyte Elastase (Homo sapiens, UniProt P08246).
T1 construct: Crude extract of human polymorphonuclear leukocytes (PMN) containing elastase activity; from tissue; host or cells: human polymorphonuclear leukocytes (crude extract)
T1 sequence (P08246 30-247 limits assumed): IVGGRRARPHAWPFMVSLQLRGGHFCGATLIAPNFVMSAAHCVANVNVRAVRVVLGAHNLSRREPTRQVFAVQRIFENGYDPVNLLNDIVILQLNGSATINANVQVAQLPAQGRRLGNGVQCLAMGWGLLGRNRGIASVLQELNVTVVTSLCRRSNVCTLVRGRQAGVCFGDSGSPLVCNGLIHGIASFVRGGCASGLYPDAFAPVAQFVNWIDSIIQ
As to the kind of experiment: Inhibition of human PMN elastase via hydrolysis of N-t-Boc-alanyl-alanyl-prolylalanine-p-nitroanilide. The note with it: pH 7.5. Type of experiment: biochemical. On the procedure: Protocol-Enzyme Assays for the Inhibition of Human Polymorphonuclear Leukocyte Elastase Via Hydrolysis of N-t-Boc-alanyl-alanyl-prolylalanine-p-nitroanilide Reagents:
0.05M TES (N-tris[hydroxymethyl]methyl-2-amino-ethanesulfonic acid) Buffer, pH 7.5.
0.2 mM N-t-Boc-alanyl-alanyl-Prolyl-Alanine-p-nitroanilide (Boc-AAPAN).
To prepare substrate, the solid (m.w. 550) was first dissolved in 10.0 ml DMSO. Buffer at pH 7.5 was then added to a final volume of 100 ml.
Crude extract of human polymorphonuclear leukocytes (PMN) containing elastase activity.
Inhibitors (N-carboxyl-thienamycin eesters) to be tested dissolved in DMSO just before use.
To 1.0 ml of 0.2 mM Boc-AAPAN in a cuvette, 0.01-0.1 ml of DMSO with or without inhibitor was added. After mixing, a measurement was taken at 410 mμ to detect any spontaneous hydrolysis due to presence of test compound. 0.05 Milliliters of PMN extract was then added and the ΔOD/min at 410 mμ was measured and recorded. Beckman model 35 spectrophotometer was used.
Results were reported as % inhibition produced by test compound within 2 minutes as represented by the % decrease in ΔOD/min as compared to a control without inhibitor.
The elastase activity in the crude PMN extract may vary from one preparation to another. A control of each new batch is run, and the volume added in the assay procedure is adjusted according to activity.

Where two headings read alike, the source gives them in different places.

Regarding `CC(O)C1C(=O)N2C(C(=O)OCc3ccccc3)=C(SCCNC(=O)OCc3ccccc3)CC12` (centres unmarked) [" benzyl benzyl H H], the inhibition at 5 µg/mL (conc. 5 μg/ml, measured within 2 minutes, crude PMN extract, Boc-AAPAN substrate, read-out: % Inhibition) was found to be 33%. For the same molecule, under “conc. 20 μg/ml, measured within 2 minutes, crude PMN extract, Boc-AAPAN substrate, read-out: % Inhibition”, the inhibition at 20 µg/mL was 69%. Besides, the inhibition at 50 µg/mL (conc. 50 μg/ml, measured within 2 minutes, crude PMN extract, Boc-AAPAN substrate, read-out: % Inhibition) is 86%.
Turning to `CC(O)C1C(=O)N2C(C(=O)OCc3ccc([N+](=O)[O-])cc3)=C(SCC(C)(C)NC(=O)OCc3ccc([N+](=O)[O-])cc3)CC12` (centres unmarked), the inhibition at 0.5 µg/mL is 45%, the inhibition at 5 µg/mL came to 89% and at 20 µg/mL the inhibition was 100%.
`O=C(NCCSC1=C(C(=O)OCc2ccc([N+](=O)[O-])cc2)N2C(=O)CC2C1)OCc1ccc([N+](=O)[O-])cc1` (centres unmarked) [H PNB PNB H H] gave an inhibition at 5 µg/mL of 18%, an inhibition at 20 µg/mL of 50% and an inhibition at 50 µg/mL of 63%.
Consider `CC(CSC1=C(C(=O)OCc2ccc([N+](=O)[O-])cc2)N2C(=O)C(C(C)O)C2C1)NC(=O)OCc1ccc([N+](=O)[O-])cc1` (centres unmarked), for which 0.5 µg/mL produced 42% inhibition, the inhibition at 1 µg/mL was 55%, the inhibition at 2 µg/mL came out at 77% and the inhibition at 10 µg/mL turned out to be 94%. The inhibition at 25 µg/mL turned out to be 100%.
`CC(OC(=O)OCc1ccc([N+](=O)[O-])cc1)C1C(=O)N2C(C(=O)OCc3ccc([N+](=O)[O-])cc3)=C(SCCNC(=O)OCc3ccc([N+](=O)[O-])cc3)CC12` (centres unmarked) gave an inhibition at 10 µg/mL of 29%, an inhibition at 25 µg/mL of 45% and an inhibition at 50 µg/mL of 55%.

By inhibition is commonly meant the relative decrease from the control value, in per cent.

For the origin of these results see patent US4495197A, “N-Carboxyl-thienamycin esters and analogs thereof as anti-inflammatory agents” (Merck & Co., Inc., priority 1982, dated 1985).
